Data reported in PubChem BioAssay (NCI).
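48-hour exposure; five concentrations; linearly interpolated endpoints. GI50: concentration for 50% inhibition of growth. TGI marks complete inhibition of growth.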

Assays:
Assay in all cases: NCI anticancer screen, dose series, 48 h
SNB-75 CNS = system: SNB-75 CNS
UACC-62 melanoma = system: UACC-62 melanoma
SK-OV-3 ovarian = system: SK-OV-3 ovarian
ACHN renal = system: ACHN renal
786-0 renal = system: 786-0 renal
UO-31 renal = system: UO-31 renal
SK-MEL-28 melanoma = system: SK-MEL-28 melanoma
OVCAR-3 ovarian = system: OVCAR-3 ovarian
NCI-H226 lung = system: NCI-H226 lung
NCI-H23 lung = system: NCI-H23 lung

Structure (SMILES) | GI50 (SNB-75 CNS) [µM] | TGI (SNB-75 CNS) [µM] | GI50 (UACC-62 melanoma) [µM] | TGI (UACC-62 melanoma) [µM] | GI50 (SK-OV-3 ovarian) [µM] | TGI (SK-OV-3 ovarian) [µM] | GI50 (ACHN renal) [µM] | TGI (ACHN renal) [µM] | GI50 (786-0 renal) [µM] | TGI (786-0 renal) [µM] | GI50 (UO-31 renal) [µM] | TGI (UO-31 renal) [µM] | GI50 (SK-MEL-28 melanoma) [µM] | TGI (SK-MEL-28 melanoma) [µM] | GI50 (OVCAR-3 ovarian) [µM] | TGI (OVCAR-3 ovarian) [µM] | GI50 (NCI-H226 lung) [µM] | TGI (NCI-H226 lung) [µM] | GI50 (NCI-H23 lung) [µM] | TGI (NCI-H23 lung) [µM]
O=C1NC(=NCc2cccs2)SC1Cc1ccc2ncccc2c1 (stereo not given) | 7.49 | > 25 | 15 | > 25 | > 25 | > 25 | 24.7 | > 25 | > 24.1 | > 25 | > 23.6 | > 25 | > 19.9 | > 25 | 13 | > 25 | > 25 | > 25 | > 25 | > 25
C/C=C/C=N/N(c1nnc(-c2ccccc2)c(-c2ccccc2)n1)S(=O)(=O)c1ccc(C)cc1 | – | 19.9 | – | 11.6 | – | 33.8 | – | 24.3 | – | 19.2 | – | 19.6 | – | 28.7 | – | 25.2 | – | 31.2 | – | 29.7
OC1CN(OC/C=C/c2ccccc2)CC(O)C1O (stereo not given) | – | > 100 | – | > 100 | – | > 100 | – | > 100 | – | 77 | – | > 100 | – | > 100 | – | > 100 | – | > 100 | – | > 100
COc1c(OC(C)=O)cc2c(OC(C)=O)c1CC(C)CC(OC)C(O)C(C)/C=C(\C)C(OC(N)=O)C(OC)/C=C\C=C(/C)C(=O)N2 (stereo not given) | – | > 100 | – | > 100 | – | > 100 | – | > 100 | – | > 100 | – | > 100 | – | > 100 | – | > 100 | – | > 100 | – | > 100
CCOP(=O)(CCP(=O)(OCC)OCC)OCC.C[CH2][Sn]([Cl])([Cl])[CH2]C | 26.4 | 69.3 | 34 | 55 | 99.3 | > 100 | 36.7 | 57.1 | 21.7 | 50.2 | > 54.2 | > 66.5 | 35.6 | > 61.9 | > 84.3 | > 100 | 20.3 | 42.7 | 19.9 | 49
CCCc1cc(=O)oc2c(C(=O)CC(C)C)c(O)c(CC=C(C)C)c(O)c12 | 10.7 | 41.8 | 1.88 | 12.1 | 13.5 | 41.2 | 7.53 | 47.1 | 10.5 | 46.2 | 12.1 | > 50 | 6.21 | > 50 | 3.53 | > 50 | 11.8 | 38.5 | 4.05 | 45.8
CCCOc1ccc(/C(Cl)=C(\C=O)c2ccc(OC)c(OC)c2)cc1OCCC | – | 75.3 | – | 19.8 | – | > 100 | – | > 100 | – | > 100 | – | > 100 | – | 25.3 | – | > 100 | – | 32.4 | – | 21.6
O=C1NC(=NCC(CO)c2ccccc2)S/C1=C\c1ccc2ncccc2c1 (stereo not given) | > 7 | > 25 | > 25 | > 25 | > 25 | > 25 | 24.4 | > 25 | > 25 | > 25 | > 25 | > 25 | > 25 | > 25 | 13.8 | > 25 | > 25 | > 25 | 12.1 | > 25
COc1cccc(Nc2nc(NNC(=O)Cc3ccccc3)nc(NNC(=O)c3ccncc3)n2)c1 | – | > 100 | 36 | > 100 | > 100 | > 100 | – | > 100 | > 100 | > 100 | 32.3 | > 100 | – | > 100 | – | > 100 | – | > 100 | > 100 | > 100
COc1ccc2c(=O)c([Se]c3coc4cc(OC)ccc4c3=O)coc2c1 | – | 87.5 | – | > 100 | – | > 100 | – | > 100 | – | > 100 | – | > 100 | – | > 100 | – | > 100 | – | > 100 | – | > 100
Nc1ccc2c(c1)C(=O)c1ccc(F)cc1-2 | – | > 100 | – | > 100 | – | > 100 | – | > 100 | – | > 100 | – | > 100 | – | > 100 | – | > 100 | – | > 100 | – | > 100
O=c1[nH]c(=S)[nH]c2c1sc(=S)n2-c1ccccc1 | – | > 100 | – | > 100 | – | > 100 | – | > 100 | – | > 100 | – | > 100 | – | > 100 | – | > 100 | – | > 100 | – | > 100
CCCCCCN(CCCCCC)CCCNc1nccc2ccccc12 | 1.65 | 4.22 | 1.69 | 3.41 | 2.09 | 5.03 | 1.9 | 4.47 | 1.81 | 3.98 | 1.35 | 3.04 | 1.64 | 3.17 | 1.73 | 3.55 | 1.61 | 3.5 | 1.8 | 3.83
OC(c1ccccc1)(c1ccccc1)c1ccccn1 | – | > 100 | – | > 100 | – | > 100 | – | > 100 | – | > 100 | – | > 100 | – | > 100 | – | > 100 | – | > 100 | – | > 100
O=C(Oc1cccnc1)c1ccccc1Nc1ccnc(C(F)(F)F)c1 | > 63.4 | > 100 | 0.313 | > 64.6 | 0.25 | > 100 | 0.353 | > 74.6 | 0.158 | 4.64 | 3.84 | > 87.3 | 0.483 | > 60.1 | 0.141 | 0.453 | 0.552 | 29.3 | 0.049 | 1.83
N=C(N)n1ncc(Cl)c(Cl)c1=O | – | 9.24 | – | 5.76 | – | 32 | – | 14.3 | – | 7.02 | – | 4.93 | – | 5.26 | – | 3.31 | – | 18.3 | – | 5.06
C[N+](C)(C)CCOP(=O)(O)OP(=O)([O-])OCC1CCC(n2ccc(N)nc2=O)O1 (stereo not given) | – | > 100 | – | > 100 | – | > 100 | – | > 100 | – | > 100 | – | > 100 | – | > 100 | – | > 100 | – | > 100 | – | > 100
